Non-standard residues stand in square brackets, D forms with d. Residues, ends and D or L forms follow the SMILES beside them. *: point of attachment. Phe(F5) = N[C@@H](Cc1c(F)c(F)c(F)c(F)c1F)C(=O)O; hArg = N=C(N)NCCCC[C@H](N)C(=O)O; 12Ado = NCCCCCCCCCCCC(=O)O; Nle = CCCC[C@H](N)C(=O)O; Orn = NCCC[C@H](N)C(=O)O; Abu = CC[C@H](N)C(=O)O; PhAc = O=C(Cc1ccccc1)*

The values below come from patent publication US11993640B2, “Treating inflammatory lung disease” (United States Government as represented by the Department …, priority 2019, dated 2024).

One assay relates to OVCAR-3 xenograft. Nature of the assay: Xenograft tumor growth in nude mice, ovarian cancer OVCAR-3. It is filed as in vivo. The settings on record: Panel M, 9 weeks, 5 μg/day s.c. The protocol:
The peptides' activity was compared with GHRH antagonist MIA-602. All statistical analyzses were performed from comparing GHRA antagonists to non-treated tumor (control).
Peptides and chemicals. GHRH antagonists MIA-602 and AVR-GHRH antagonists (see Table 2 above) were synthesized by solid phase methods and purified by HPLC. The peptides were dissolved in DMSO and further diluted in 10% 1, 2-propanediol. The final concentration of peptides was 50 µg/ml in 10% 1, 2-propanediol containing 0.1% of DMSO.
Cell culture. Human cancer cell lines including pancreatic (PANC-1 and CFPAC-1), lung (HCC827 and H460), stomach (NCI-N87), prostate (PC3), brest (MX-1 and HCC-1806), colorectal (HT-29), and ovarian (SK-OV-3 and OVCAR-3) were obtained from the American Type Culture Collection (ATCC) and cultured at 37° C. in a humidified 95% air/5% CO2 atmosphere in the medium recommended by ATCC.
Xenograft models of human cancers in nude mice. Female athymic (NCr nu/nu) nude mice, 5-to 6-weeks-old, obtained from the Envigo labs (Tampa, FL), were housed in laminar airflow cabinets under pathogen-free conditions with a 12-h light/12-h dark schedule, and were fed autoclaved standard chow and water. To generate mice with xenografted tumors, tumor xenografts were initiated by subcutaneous (s.c.) injection of […] human cancer cells into female nude mice. After about 4 weeks the resulting tumors were dissected and collected after removing necrosis tissues. The tumors were then cut into particles with size of ˜3 mm3 and transplanted s.c. by trocar needle into experimental animals. When tumors grew to the size of 50-60 mm3 (by volume), mice were randomized into groups and treated daily for 4-8 weeks by subcutaneous administration of 5 μg of GHRH antagonists MIA-602 or AVR-compounds (2-10 μg as indicated), or vehicle solutions (0.1% DMSO in 10% 1, 2-propanediol) respectively. Tumor sizes were measured weekly.
Statistical analysis. One-way ANOVA followed by Bonferroni comparison were performed. Data are expressed as Mean±SEM. […]

Assay [1] relates to C57Bl/6J mice treated with bleomycin. Nature of the assay: Bleomycin lung injury model, lung hydroxyproline assay. It is filed as in vivo, mouse. The protocol: Experimental animals. 8-week old C57Bl/6J male mice (The Jackson Laboratory, Bar Harbor, ME) were used in these experiments. Mice weighed about 26 grams at the start. Mice were randomly allocated to the experimental groups and housed in identical filter top cages in a ventilated rack. Mice were exposed to a 12-hour light/dark cycle and had free access to standard laboratory chow and water.
Bleomycin and GHRH-R antagonist treatment. Mice were treated with 0.8 units of bleomycin (Bleomycin for Injection USP, Hospira, Lake Forest, IL) intraperitoneally (IP) on days 1, 3, 7, 10, 14 and 21 (Collins S, Chan-Li Y, Oh M, Vigeland C, Limjunyawong N, Mitzner W, Powell J D, Horton M R (2016). JCI Insight 1(4):1-13). Mice (randomly assigned) were simultaneously treated subcutaneously (sc) with MIA-602 (5 μg/day) or its vehicle (100 μL/day). MIA-602 was dissolved in DMSO (ACS grade; Sigma-Aldrich) and diluted 1:500 in normal saline for daily sc injection on days 0-21.
Tissue preparations. Mice were killed by CO2 inhalation before any treatment, or on days 14 or 28 for micro-CT scans of lungs and harvesting of lung tissue (Vande Velde G, Poelmans J, De Langhe E, Hillen A, Vanoirbeek J, Himmelreich U, Lories R (2016). Dis Model Mech 9:91). […]
Hydroxyproline assay. […] Hydroxyproline was measured colorimetrically (560 nm) after hydrolysis using an assay kit (MAK008, Sigma-Aldrich, St. Louis, MO). […]

Turning to `CCCC[C@H](NC(=O)[C@@H](NC(=O)[C@H](CC(=O)O)NC(=O)[C@H](CCC(N)=O)NC(=O)[C@H](CC(C)C)NC(=O)[C@H](CC(C)C)NC(=O)[C@H](CCCN)NC(=O)[C@H](Cc1c[nH]cn1)NC(=O)[C@H](C)NC(=O)[C@H](CO)NC(=O)[C@H](CC(C)C)NC(=O)[C@H](CCC(N)=O)NC(=O)[C@H](CC)NC(=O)[C@H](CC(C)C)NC(=O)[C@@H](NC(=O)[C@H](CCCN)NC(=O)[C@H](Cc1c[nH]cn1)NC(=O)[C@H](Cc1ccc(OC)cc1)NC(=O)[C@H](CCCCNC(=N)N)NC(=O)[C@H](C)NC(=O)[C@@H](NC(=O)[C@H](Cc1c(F)c(F)c(F)c(F)c1F)NC(=O)[C@@H](NC(=O)[C@H](C)NC(=O)[C@H](CC(=O)O)NC(=O)[C@@H](CCCNC(=N)N)NC(=O)[C@H](Cc1ccc(O)cc1)NC(=O)CCCCCCCCCCCNC(=O)Cc1ccccc1)[C@@H](C)CC)[C@@H](C)O)C(C)C)[C@@H](C)CC)C(=O)N[C@H](CCCNC(=N)N)C(=O)N[C@@H](CCCCNC(=N)N)C(N)=O` [MIA-602, PhAC-Ada, Tyr D-Arg, Asp, Ala, Ile, 5FPhe, Thr, Ala, Har, Tyr(Me), His, Orn, Val, Leu, Abu, Gin, Leu, Ser, Ala, His, Orn, Leu, Leu, Gin, Asp, Ile, Nle, D-Arg, Har NH2, reference compound] ({PhAc-12Ado}-Y[dR]DAI[Phe(F5)]TA[hArg]Y(Me)H[Orn]VL[Abu]QLSAH[Orn]LLQDI[Nle][dR][hArg]-NH2), in the assay on OVCAR-3 xenograft, the “Tumor Growth %” value came to 267.2%. In addition, the “Lung hydroxyproline (HP) content” value was “did not increase significantly” in assay [1] (day 14, MIA-602 5 μg/day sc, bleomycin IP) and “No significant increase in HP content” in assay [1] (day 28, MIA-602 5 μg/day sc days 1-21, bleomycin IP, compared to naive).
